Where a name gives a salt, the structure may show the parent alone.
`Cc1c(C(=O)NN2CCCCC2)nc(-c2ccc(Cl)cc2Cl)n1-c1ccc(OS(=O)(=O)CCC(C)(C)C)cc1` (as salt: hydrochloride) [Example 6, 3,3-Dimethyl-butane-1-sulfonic acid 4-[2-(2,4-dichloro-phenyl)-5-methyl-4-(piperidin-1-ylcarbamoyl)-imidazol-1-yl]-phenyl ester] gave a melting point of 152 to 156 °C.

Compound `Cc1c(C(=O)NN2CCCCC2)nc(-c2ccc(Cl)cc2Cl)n1-c1ccc(OS(=O)(=O)c2ccc(Cl)s2)cc1` (as salt: hydrochloride) [Example 5, 5-Chloro-thiophene-2-sulfonic acid 4-[2-(2,4-dichloro-phenyl)-5-methyl-4-(piperidin-1-ylcarbamoyl)-imidazol-1-yl]-phenyl ester] has a melting point of 112 to 118 °C.

In the case of `Cc1c(C(=O)NN2CCCCC2)nc(-c2ccc(Cl)cc2Cl)n1-c1ccc(OCc2ccccc2)cc1` (as salt: hydrochloride) [Example 1, 1-(4-Benzyloxy-phenyl)-2-(2,4-dichloro-phenyl)-5-methyl-1H-imidazole-4-carboxylic acid piperidin-1-ylamide], the melting point is reported as 195 to 198 °C.

For `Cc1c(C(=O)NN2CCCCC2)nc(-c2ccc(Cl)cc2Cl)n1-c1ccc(OS(=O)(=O)CCCC(F)(F)F)cc1` (as salt: hydrochloride) [Example 3, 4,4,4-Trifluoro-butane-1-sulfonic acid 4-[2-(2,4-dichloro-phenyl)-5-methyl-4-(piperidin-1-ylcarbamoyl)-imidazol-1-yl]-phenyl ester], the melting point was 113 to 118 °C.

With `CCS(=O)(=O)Oc1ccc(-n2c(-c3ccc(Cl)cc3Cl)nc(C(=O)NN3CCCCC3)c2C)cc1` (as salt: hydrochloride) [Example 2, Ethanesulfonic acid 4-[2-(2,4-dichloro-phenyl)-5-methyl-4-(piperidin-1-ylcarbamoyl)-imidazol-1-yl]-phenyl ester] the melting point was 94 to 101 °C.

`Cc1c(C(=O)NN2CCCCC2)nc(-c2ccc(Cl)cc2Cl)n1-c1ccc(OS(=O)(=O)CCC(F)(F)F)cc1` (as salt: hydrochloride) [Example 8, 3,3,3-Trifluoro-propane-1-sulfonic acid 4-[2-(2,4-dichloro-phenyl)-5-methyl-4-(piperidin-1-ylcarbamoyl)-imidazol-1-yl]-phenyl ester] gave a melting point of 183 to 186 °C.

For `Cc1c(C(=O)NN2CCCCC2)nc(-c2ccc(Cl)cc2Cl)n1-c1ccc(OS(=O)(=O)c2cccs2)cc1` (as salt: hydrochloride) [Example 7, Thiophene-2-sulfonic acid 4-[2-(2,4-dichloro-phenyl)-5-methyl-4-(piperidin-1-ylcarbamoyl)-imidazol-1-yl]phenyl ester], the melting point was 107 to 112 °C.

Work on `Cc1c(C(=O)NN2CCCCC2)nc(-c2ccc(Cl)cc2Cl)n1-c1ccc(OS(=O)(=O)c2cccnc2)cc1` (as salt: hydrochloride) [Example 4, Pyridine-3-sulfonic acid 4-[2-(2,4-dichloro-phenyl)-5-methyl-4-(piperidin-1-ylcarbamoyl)-imidazol-1-yl]-phenyl ester] yielded a melting point of 205 to 209 °C.

Work on `CCCS(=O)(=O)Oc1ccc(-n2c(-c3ccc(Cl)cc3Cl)nc(C(=O)NN3CCCCC3)c2C)cc1` (as salt: hydrochloride) [Example 9, Propane-1-sulfonic acid 4-[2-(2,4-dichloro-phenyl)-5-methyl-4-(piperidin-1-ylcarbamoyl)-imidazol-1-yl]-phenyl ester] yielded a melting point of 126 to 133 °C.

Source: patent US20090005415A1, “1,2-Diarylimidazoles for Use as Cb1 Modulators” (priority 2005, published 2009)
